± gives the expanded uncertainty stated by the source.
Test: refractive index (Na D-line) (dimensionless)
Settings: 293.1 K; 101.33 kPa; Liquid; Standard Abbe refractometry

SMILES | refractive index
CCCCc1ccccc1 [butylbenzene] | 1.4894 ± 0.0008
CCCCCCCC[n+]1ccn(C)c1.F[P-](F)(F)(F)(F)F [1-octyl-3-methylimidazolium hexafluorophosphate] | 1.4231 ± 0.0008
CCCCn1cc[n+](C)c1.F[P-](F)(F)(F)(F)F [1-butyl-3-methylimidazolium hexafluorophosphate] | 1.4101 ± 0.0008
CCCCCCn1cc[n+](C)c1.F[P-](F)(F)(F)(F)F [1-hexyl-3-methylimidazolium hexafluorophosphate] | 1.4176 ± 0.0008
CCCCCCCCCCCC [dodecane] | 1.4221 ± 0.0008

Source: the NIST ThermoML archive (doi:10.1021/je3002305)
